The values that follow come from patent US5464829A, “Cephalosporin derivatives” (Meiji Seika Kaisha Ltd., priority 1992, dated 1995).

What is called MIC is the smallest concentration in the dilution series that meets the test's criterion for growth inhibition. High values mean a need for much substance, low ones inhibition by little substance.

In brackets after ≈: the same amount, converted by molar mass.

Holding throughout (assay): Minimum inhibitory concentration (MIC), serial dilution technique
Holding throughout (format): cell-based

One assay relates to S. aureus 209P JC-1. Particulars: Staphylococcus aureus, 10^6 CFU/ml, 35° C., 18 to 20 hours. The procedure: (§1) Antibacterial activities of the following typical compounds A through E of the present invention represented by formula (I) upon various bacteria were determined by measuring the minimum inhibitory concentrations (MIC) in accordance with the known serial dilution technique. MIC was measured by inoculating 10^6 CFU/ml of each test strain on a Sensitivity Plate Medium N (Nissui Pharmaceutical Co., Ltd.), incubating the plates at 35° C. for 18 to 20 hours and then evaluating the results.

A further assay deals with S. marcescens No. 1. Particulars: Serratia marcescens, 10^6 CFU/ml, 35° C., 18 to 20 hours. Here is the method:
as §1

The subject of the next assay is P. aeruginosa E-2. Particulars: Pseudomonas aeruginosa, E2, 10^6 CFU/ml, 35° C., 18 to 20 hours. Here is the method: as §1
The test system of a further assay is K. pneumoniae PCI602. Particulars: Klebsiella pneumoniae, 10^6 CFU/ml, 35° C., 18 to 20 hours. The procedure:
as §1

The next assay concerns E. coli NIHJ JC-2. Particulars: Escherichia coli, NIHJJC2, 10^6 CFU/ml, 35° C., 18 to 20 hours. The procedure: as §1
For the next assay, the system named is E. cloacae G-0008. Particulars: Enterobacter cloacae, G0008, 10^6 CFU/ml, 35° C., 18 to 20 hours. Here is the method:
as §1

A further assay concerns P. vulgaris GN76. Particulars: Proteus vulgaris, 10^6 CFU/ml, 35° C., 18 to 20 hours. Here is the method:
as §1

In the next assay the test system is S. epidermidis ATCC14990. Particulars: Staphylococcus epidermidis, 10^6 CFU/ml, 35° C., 18 to 20 hours. The procedure: as §1
A further assay has as its system C. freundii GN346/16. Particulars: Citrobacter freundii, 10^6 CFU/ml, 35° C., 18 to 20 hours. Here is the method:
as §1

The subject of a further assay is M. morganii 1510/S-1. Particulars: Morganella morganii, 1510/S1, 10^6 CFU/ml, 35° C., 18 to 20 hours. The procedure:
as §1

The next assay concerns E. hirae ATCC8043. Particulars: Enterococcus hirae, 10^6 CFU/ml, 35° C., 18 to 20 hours. Here is the method:
as §1

As for `C[n+]1ccc2sc(SCC3=C(C(=O)[O-])N4C(=O)C(NC(=O)/C(=N\OC(C)(C)C(=O)O)c5csc(N)n5)C4SC3)nc2c1` (stereo not shown) [D, 7-{(Z)-2-(2-aminothiazol-4-yl)-2-(1-carboxy-1-methylethoxyimino)acetamido}-3-(5-methylthiazolo[4,5-c]pyridinium-2-yl)thiomethyl-3-cephem-4-carboxylate], the MIC against S. aureus 209P JC-1 was 3.13 mg/L (≈ 4.82 µM); against S. marcescens No. 1, 0.05 mg/L (≈ 0.077 µM); against P. aeruginosa E-2 it was 3.13 mg/L (≈ 4.82 µM); against K. pneumoniae PCI602, 0.2 mg/L (≈ 0.308 µM); against E. coli NIHJ JC-2, 0.2 mg/L (≈ 0.308 µM); against E. cloacae G-0008, 0.2 mg/L (≈ 0.308 µM). Also, the MIC with P. vulgaris GN76 is 0.1 mg/L (≈ 0.154 µM); against S. epidermidis ATCC14990, 3.13 mg/L (≈ 4.82 µM); in the assay with C. freundii GN346/16, 0.39 mg/L (≈ 0.6 µM); in the assay with M. morganii 1510/S-1, 0.05 mg/L (≈ 0.077 µM); in the assay on E. hirae ATCC8043, above 100 mg/L.
Turning to `C[C@H](O/N=C(\C(=O)NC1C(=O)N2C(C(=O)[O-])=C(CSc3nc4c[n+](C)ccc4s3)CSC12)c1csc(N)n1)C(=O)O` (stereo partly drawn) [E, 7-[(Z)-2-(2-aminothiazol-4-yl)-2-{(S)-1-carboxyethoxyimino}acetamido]-3-(5-methylthiazolo[4,5-c]pyridinium-2-yl)thiomethyl-3-cephem-4-carboxylate], the MIC stood at 1.56 mg/L (≈ 2.45 µM) against S. aureus 209P JC-1; 0.05 mg/L (≈ 0.0786 µM) against S. marcescens No. 1; 1.56 mg/L (≈ 2.45 µM) with P. aeruginosa E-2; 0.05 mg/L (≈ 0.0786 µM) in the assay with K. pneumoniae PCI602; 0.2 mg/L (≈ 0.315 µM) against E. coli NIHJ JC-2; 0.2 mg/L (≈ 0.315 µM) in the assay with E. cloacae G-0008. Besides, the MIC was below 0.025 mg/L in the assay on P. vulgaris GN76; 1.56 mg/L (≈ 2.45 µM) in the assay on S. epidermidis ATCC14990; 0.39 mg/L (≈ 0.613 µM) with C. freundii GN346/16; 0.05 mg/L (≈ 0.0786 µM) in the assay with M. morganii 1510/S-1; above 100 mg/L in the assay on E. hirae ATCC8043.
Turning to `C[n+]1ccc2sc(SCC3=C(C(=O)[O-])N4C(=O)C(NC(=O)/C(=N\OCC(=O)O)c5csc(N)n5)C4SC3)nc2c1` (stereo not shown) [C, 7-{(Z)-2-(2-aminothiazol-4-yl)-2-carboxymethoxyiminoacetamido}-3-(5-methylthiazolo[4,5-c]pyridinium-2-yl)thiomethyl-3-cephem-4-carboxylate], the MIC in the assay with S. aureus 209P JC-1 was 3.13 mg/L (≈ 5.03 µM); against S. marcescens No. 1 it was below 0.025 mg/L; against P. aeruginosa E-2, 12.5 mg/L (≈ 20.1 µM); in the assay with K. pneumoniae PCI602 it was below 0.025 mg/L; in the assay with E. coli NIHJ JC-2, 0.05 mg/L (≈ 0.0804 µM); in the assay with E. cloacae G-0008, 0.05 mg/L (≈ 0.0804 µM). The MIC in the assay with P. vulgaris GN76 was below 0.025 mg/L; against S. epidermidis ATCC14990 it was 3.13 mg/L (≈ 5.03 µM); against C. freundii GN346/16, 0.2 mg/L (≈ 0.322 µM); against M. morganii 1510/S-1 it was below 0.025 mg/L; in the assay with E. hirae ATCC8043, 100 mg/L (≈ 161 µM).
Turning to `CO/N=C(\C(=O)NC1C(=O)N2C(C(=O)[O-])=C(CSc3nc4c[n+](C)ccc4s3)CSC12)c1csc(N)n1` (stereo not shown) [A, 7-{(Z)-2-(2-aminothiazol-4-yl)-2-methoxyiminoacetamido}-3-(5-methylthiazolo[4,5-c]pyridinium-2-yl)thiomethyl-3-cephem-4-carboxylate], the minimum inhibitory concentration (MIC) against S. aureus 209P JC-1 was 0.2 mg/L (≈ 0.346 µM); with S. marcescens No. 1, 0.05 mg/L (≈ 0.0866 µM); in the assay with P. aeruginosa E-2 it was 50 mg/L (≈ 86.6 µM); with K. pneumoniae PCI602, 0.05 mg/L (≈ 0.0866 µM); against E. coli NIHJ JC-2 it was 0.05 mg/L (≈ 0.0866 µM); against E. cloacae G-0008 it was 0.05 mg/L (≈ 0.0866 µM). In addition, the MIC against P. vulgaris GN76 was 0.39 mg/L (≈ 0.675 µM); against S. epidermidis ATCC14990, 0.2 mg/L (≈ 0.346 µM); against C. freundii GN346/16 it was 0.1 mg/L (≈ 0.173 µM); against M. morganii 1510/S-1, below 0.025 mg/L; in the assay on E. hirae ATCC8043, 1.56 mg/L (≈ 2.7 µM).
As to `CO/N=C(\C(=O)NC1C(=O)N2C(C(=O)[O-])=C(CSc3nc4c(ccc[n+]4C)s3)CSC12)c1csc(N)n1` (stereo not shown) [B, 7-{(Z)-2-(2-aminothiazol-4-yl)-2-methoxyiminoacetamido}-3-(4-methylthiazolo[4,5-b]pyridinium-2-yl)thiomethyl-3-cephem-4-carboxylate], the MIC amounted to 0.2 mg/L (≈ 0.346 µM) in the assay with S. aureus 209P JC-1; 0.2 mg/L (≈ 0.346 µM) against S. marcescens No. 1; 25 mg/L (≈ 43.3 µM) with P. aeruginosa E-2; 0.05 mg/L (≈ 0.0866 µM) against K. pneumoniae PCI602; 0.1 mg/L (≈ 0.173 µM) against E. coli NIHJ JC-2; 0.2 mg/L (≈ 0.346 µM) in the assay on E. cloacae G-0008. The MIC against P. vulgaris GN76 was determined as 0.2 mg/L (≈ 0.346 µM); against S. epidermidis ATCC14990, 0.2 mg/L (≈ 0.346 µM); against C. freundii GN346/16, 0.1 mg/L (≈ 0.173 µM); in the assay on M. morganii 1510/S-1, 0.1 mg/L (≈ 0.173 µM); in the assay on E. hirae ATCC8043 it was 50 mg/L (≈ 86.6 µM).
